{"source": "PubChem BioAssay (NCI)", "assay_in_all_cases": "growth of human tumour cells (NCI), 48 h", "key": {"[1]": {"system": "NCI-H522 lung"}, "[2]": {"system": "NCI/ADR-RES ovarian"}, "[3]": {"system": "OVCAR-3 ovarian"}, "[4]": {"system": "NCI-H23 lung"}, "[5]": {"system": "OVCAR-5 ovarian"}, "[6]": {"system": "U251 CNS"}, "[7]": {"system": "HCC-2998 colon"}, "[8]": {"system": "SW-620 colon"}, "[9]": {"system": "SK-OV-3 ovarian"}, "[10]": {"system": "RXF 393 renal"}, "[11]": {"system": "LOX IMVI melanoma"}, "[12]": {"system": "UACC-257 melanoma"}, "[13]": {"system": "NCI-H460 lung"}, "[14]": {"system": "SF-268 CNS"}, "[15]": {"system": "ACHN renal"}, "[16]": {"system": "HCT-15 colon"}, "[17]": {"system": "MDA-MB-231 breast"}, "[18]": {"system": "UACC-62 melanoma"}, "[19]": {"system": "NCI-H226 lung"}, "[20]": {"system": "T-47D breast"}, "[21]": {"system": "SR leukemia"}, "[22]": {"system": "SNB-19 CNS"}, "[23]": {"system": "K-562 leukemia"}, "[24]": {"system": "HS 578T breast"}, "[25]": {"system": "EKVX NSCLC"}, "[26]": {"system": "SK-MEL-5 melanoma"}, "[27]": {"system": "TK-10 renal"}, "[28]": {"system": "KM12 colon"}, "[29]": {"system": "HT29 colon"}, "[30]": {"system": "CAKI-1 renal"}, "[31]": {"system": "IGROV1 ovarian"}, "[32]": {"system": "UO-31 renal"}, "[33]": {"system": "PC-3 prostate"}, "[34]": {"system": "SK-MEL-2 melanoma"}}, "note": "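Where inhibition never reached the appropriate level, the endpoint shown equals the highest concentration tested. Otherwise, values were interpolated linearly from a five-concentration, 48-hour dose response in 96-well plates. TGI denotes the concentration required for complete inhibition of growth.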"}
{"smiles": "Oc1c(N2CCOCC2)cc(-c2cc(N3CCOCC3)c(O)c3ccccc23)c2ccccc12", "values": [{"measurement": "TGI", "setting": "[1]", "result": 4.89, "unit": "µM"}, {"measurement": "TGI", "setting": "[2]", "result": 15.6, "unit": "µM"}, {"measurement": "TGI", "setting": "[3]", "result": 15.6, "unit": "µM"}, {"measurement": "TGI", "setting": "[4]", "result": 6.13, "unit": "µM"}, {"measurement": "TGI", "setting": "[5]", "result": 7.25, "unit": "µM"}, {"measurement": "TGI", "setting": "[6]", "result": 3.34, "unit": "µM"}, {"measurement": "TGI", "setting": "[7]", "result": 5.78, "unit": "µM"}, {"measurement": "TGI", "setting": "[8]", "result": 6.34, "unit": "µM"}, {"measurement": "TGI", "setting": "[9]", "result": 51.9, "unit": "µM"}, {"measurement": "TGI", "setting": "[10]", "result": 6.03, "unit": "µM"}, {"measurement": "TGI", "setting": "[11]", "result": 7.09, "unit": "µM"}, {"measurement": "TGI", "setting": "[12]", "result": 5.11, "unit": "µM"}, {"measurement": "TGI", "setting": "[13]", "result": 11.4, "unit": "µM"}, {"measurement": "TGI", "setting": "[14]", "result": 17.8, "unit": "µM"}, {"measurement": "TGI", "setting": "[15]", "result": 11, "unit": "µM"}, {"measurement": "TGI", "setting": "[16]", "result": 6.38, "unit": "µM"}, {"measurement": "TGI", "setting": "[17]", "result": "> 100", "unit": "µM"}, {"measurement": "TGI", "setting": "[18]", "result": 5.73, "unit": "µM"}, {"measurement": "TGI", "setting": "[19]", "result": 59.8, "unit": "µM"}, {"measurement": "TGI", "setting": "[20]", "result": 62.1, "unit": "µM"}, {"measurement": "TGI", "setting": "[21]", "result": 2.29, "unit": "µM"}, {"measurement": "TGI", "setting": "[22]", "result": 16.6, "unit": "µM"}, {"measurement": "TGI", "setting": "[23]", "result": 6.64, "unit": "µM"}, {"measurement": "TGI", "setting": "[24]", "result": "> 100", "unit": "µM"}, {"measurement": "TGI", "setting": "[25]", "result": 41.6, "unit": "µM"}, {"measurement": "TGI", "setting": "[26]", "result": 3.35, "unit": "µM"}, {"measurement": "TGI", "setting": "[27]", "result": 28.9, "unit": "µM"}, {"measurement": "TGI", "setting": "[28]", "result": 25.4, "unit": "µM"}, {"measurement": "TGI", "setting": "[29]", "result": 5.26, "unit": "µM"}, {"measurement": "TGI", "setting": "[30]", "result": 13.8, "unit": "µM"}, {"measurement": "TGI", "setting": "[31]", "result": 7.16, "unit": "µM"}, {"measurement": "TGI", "setting": "[32]", "result": 4.66, "unit": "µM"}, {"measurement": "TGI", "setting": "[33]", "result": 14.6, "unit": "µM"}, {"measurement": "TGI", "setting": "[34]", "result": 8.29, "unit": "µM"}]}
